Experimental data from US11535597B2, “Photoreactive ligands and uses thereof” (The Scripps Research Institute, priority 2017, dated 2022).
“Also recorded” adds a separate entry of the source. One block for each molecule: values may come before it.

What was measured:
cathepsin B (CTSB) = target: T1, cathepsin B (CTSB) (Homo sapiens, UniProt P07858); assay: Mapping and competition of FFF probe-modified peptide on cathepsin B (CTSB); format: binding; details: HEK293T cells co-treated with 9 (200 μM)
T1 construct: endogenous in cells; host or cells: HEK293T
Procedure: (§1) Preparation and analysis was adapted from methods previously reported. In brief, for global mapping of fragment probe-modified peptides, separate 10 cm dishes of cells were treated with probes (200-250 μM) in 3.0 mL of DMEM (serum-free) and (if applicable) competitor ligands, proteomes harvested and subjected to click chemistry conditions with either light or heavy isotopically labeled biotin-TEV-azide (10 μL of 5 mM stocks in DMSO, final concentration=100 μM), TCEP, ligand and CuSO4 as detailed above. The samples were allowed to react for 1 h at which point the samples were centrifuged (16,000 g, 5 min, 4° C.). The resulting pellets were sonicated in ice-cold methanol (500 μL) and the resuspended light- and heavy-labeled samples were then combined and centrifuged (16,000 g, 5 min, 4° C.). The pellets were then solubilized in PBS containing 1.2% SDS (1 mL) with sonication and heating (5 min, 95° C.). Samples were transferred to falcon tubes containing DPBS (5 mL), to which a 100 μL of streptavidin-agarose beads slurry was added. […]
(§2) The resulting probe-modified peptides were collected for MS analysis, which was performed as described above with differences in the salt bumps applied in the chromatographic gradients which in this case were 0%, 30%, 60%, 90% and 100% NH4OAc (500 μM). […] The isoTOP ratios for probe labeled peptides were quantified using the in-house software CIMAGE. […]

[1] = tested on: proteins in HEK293T cells; assay: MS-based mapping of FFF probe-modified peptides (isoTOP, sites of labeling); format: binding, human
Procedure: (§3) Preparation and analysis was adapted from methods previously reported. In brief, for global mapping of fragment probe-modified peptides, separate 10 cm dishes of cells were treated with probes (200-250 μM) in 3.0 mL of DMEM (serum-free) and (if applicable) competitor ligands, proteomes harvested and subjected to click chemistry conditions with either light or heavy isotopically labeled biotin-TEV-azide (10 μL of 5 mM stocks in DMSO, final concentration=100 μM), TCEP, ligand and CuSO4 as detailed above. The samples were allowed to react for 1 h at which point the samples were centrifuged (16,000 g, 5 min, 4° C.). The resulting pellets were sonicated in ice-cold methanol (500 μL) and the resuspended light- and heavy-labeled samples were then combined and centrifuged (16,000 g, 5 min, 4° C.). The pellets were then solubilized in PBS containing 1.2% SDS (1 mL) with sonication and heating (5 min, 95° C.). Samples were transferred to falcon tubes containing DPBS (5 mL), to which a 100 μL of streptavidin-agarose beads slurry was added. After incubation, the beads (3 hr) were pelleted by centrifugation (1,400 g, 3 min) and were washed (2×10 mL PBS and 2×10 mL water). The beads were transferred to eppendorf tubes with 1 mL DPBS, centrifuged (1,400 g, 3 min), and resuspended in PBS containing 6 M urea. To this was added 10 mM DTT (25 μL of a 200 mM stock in water) and the beads were incubated at 65° C. for 15 mins. 20 mM iodoacetamide (25 μL of a 400 mM stock in water) was then added and allowed to react at 37° C. for 30 mins with shaking. The bead mixture was diluted with 900 μL PBS, pelleted by centrifugation (1,400 g, 3 min), and resuspended in 200 μL 2M urea (DPBS) containing trypsin and CaCl2 as described above. The beads were separated from the digest by centrifugation (1,000 g, 1 min), washed (2×1 mL PBS and 2×1 mL water) and then transferred to fresh eppendorfs with 1 mL water. The washed beads were washed once further in 150 μL TEV buffer (50 mM Tris, pH 8, 0.5 mM EDTA, 1 mM DTT) by centrifugation (1,400 g, 3 min) and the resuspended in 150 μL TEV buffer. 5 μL TEV protease (80 μM) was added and the reactions were rotated overnight at 29° C. The TEV digest was separated from the beads by centrifugation (1,400 g, 3 min) and the beads were washed once with water (100 μL). The samples were then acidified to a final concentration of 5% (v/v) formic acid and stored at −80° C. prior to analysis.
The resulting probe-modified peptides were collected for MS analysis, which was performed as described above with differences in the salt bumps applied in the chromatographic gradients which in this case were 0%, 30%, 60%, 90% and 100% NH4OAc (500 μM). The protein identification searches of the MS data were performed with the following changes applied to identify the peptides modified with the corresponding fragment probe and the cleaved TEV tag. All amino acids were considered as possible residues for modification. To facilitate the computational searches, sets of up to 3 amino acids were searched using ProLuCID and filtered with DTASelect as described above. […] The isoTOP ratios for probe labeled peptides were quantified using the in-house software CIMAGE.
For each protein in the site-of-labeling dataset, the UniProtKB accession number was used to map and collect relevant structures from the RCSB Protein Data Bank (PDB) fulfilling the following criteria: structures determined by X-ray crystallography, wild-type protein, Homo sapiens as the sole source organism. […] Fpocket 2.0 was used to detect potential binding pockets for the resultant structures with all parameters set at recommended default. Pockets with volume less than 500 Å^3 were removed from output prior to further analysis. Residues surrounding fpocket predicted binding pockets for each protein were collected to determine the number of residues overlapping with isoTOP peptides.

α-galactosidase (GLA) = target: T2, α-galactosidase (GLA) (Homo sapiens, UniProt P06280); assay: Mapping of FFF probe-modified peptides on α-galactosidase (GLA); format: binding
T2 construct: endogenous in cells; host or cells: human cells (HEK293T; a subset of probes also in K562)
T2 sequence (P06280 32-429): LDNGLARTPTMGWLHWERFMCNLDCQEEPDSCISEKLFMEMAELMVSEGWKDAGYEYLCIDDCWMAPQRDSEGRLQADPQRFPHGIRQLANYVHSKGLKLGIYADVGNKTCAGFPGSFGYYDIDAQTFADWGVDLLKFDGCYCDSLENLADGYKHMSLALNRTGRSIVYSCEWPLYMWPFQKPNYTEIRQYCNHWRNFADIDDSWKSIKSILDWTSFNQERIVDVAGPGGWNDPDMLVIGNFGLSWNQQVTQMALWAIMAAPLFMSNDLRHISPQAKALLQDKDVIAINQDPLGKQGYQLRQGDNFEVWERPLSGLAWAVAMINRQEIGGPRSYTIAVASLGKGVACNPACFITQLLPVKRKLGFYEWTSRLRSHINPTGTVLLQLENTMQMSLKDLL
Procedure: as §3, §2

PTGR2 = PTGR2 (Homo sapiens, UniProt Q8N8N7); assay: Mapping and competition of FFF 8-modified tryptic peptides on PTGR2; format: binding; details: near the active site
Chain of PTGR2 (Q8N8N7 whole entry): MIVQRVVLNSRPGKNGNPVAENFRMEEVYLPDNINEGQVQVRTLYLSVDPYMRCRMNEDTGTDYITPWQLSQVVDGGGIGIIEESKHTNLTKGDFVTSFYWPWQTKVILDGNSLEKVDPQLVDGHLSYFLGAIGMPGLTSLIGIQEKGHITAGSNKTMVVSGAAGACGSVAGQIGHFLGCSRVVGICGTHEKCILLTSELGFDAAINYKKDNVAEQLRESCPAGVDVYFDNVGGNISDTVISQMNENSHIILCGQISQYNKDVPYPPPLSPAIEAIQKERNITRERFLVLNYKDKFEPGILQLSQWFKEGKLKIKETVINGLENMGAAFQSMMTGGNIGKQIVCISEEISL
Procedure: as §1, §2

blockade of probe 9 interaction with CTSB (cathepsin B (CTSB)): blocked
SMILES: CC(NC(=O)[C@H](Cc1ccccc1)NC(=O)OCc1ccccc1)C(=O)CF (stereo partly shown) [Z-FA-FMK, reference compound]

Labeled Peptide of GLA Alpha-galactosidase A (α-galactosidase (GLA); Accession P06280, residues of probe-labeled peptide, family Enzymes): 68-82 | Labeled Peptide (α-galactosidase (GLA); P06280 GLA Alpha-galactosidase A): 68-82 | Labeled Peptide (α-galactosidase (GLA); protein GLA Alpha-galactosidase A, residues of probe-labeled peptide): 68-82
SMILES: C#CCCC1(CCC(=O)NCc2ccc3sccc3c2)N=N1 [probe 4, N-(Benzo[b]thiophen-5-ylmethyl)-3-(3-(but-3-yn-1-yl)-3H-diazirin-3-yl)propanamide]
Labeled Peptide of HCCS Cytochrome c-type heme lyase ([1]; Accession P53701, residues of probe-labeled peptide, family Enzymes): 200-210 | Labeled Peptide ([1]; HNRNPK Heterogeneous nuclear ribonucleoprotein K, residues of probe-modified peptide): 423-433 | Labeled Peptide ([1]; IDE Insulin-degrading enzyme, residues of probe-modified peptide): 312-324 | Labeled Peptide ([1]; NUP93 (Q8N1F7), residues of the probe-labeled peptide): 539-545 | Labeled Peptide ([1]; P07195 LDHB L-lactate): 234-244 | Labeled Peptide ([1]; P22830 FECH Fen-ochelatase, mitochondrial): 254-272 | Labeled Peptide ([1]; protein BCAS2 (O75934), residues of probe-labeled peptide): 137-151 | Labeled Peptide ([1]; protein CPT2 Carnitine O-palmitoyltransferase 2, mitochondrial (P23786), residues of probe-labeled peptide): 478-495 | Labeled Peptide ([1]; protein EMD Emerin (P50402), residues of probe-labeled peptide): 212-221 | Labeled Peptide ([1]; protein FECH Ferrochelatase, mitochondrial (P22830), residues of probe-labeled peptide): 254-272 | Labeled Peptide ([1]; protein FECH Ferrochelatase, mitochondrial, residues of probe-labeled peptide): 254-272 | Labeled Peptide ([1]; protein LDHB L-lactate dehydrogenase B chain, residues of the probe-labeled peptide): 234-244 | Labeled Peptide ([1]; protein P42166 TMPO Lamina-associated polypeptide 2, isoform alpha): 621-637 | Labeled Peptide ([1]; protein PGRMC2 Membrane-associated progesterone receptor component (O15173)): 136-149 | Labeled Peptide ([1]; protein PSMD11 26S proteasome non-ATPase regulatory subunit 11 (O00231)): 298-304 | Labeled Peptide ([1]; protein Q14166 TTLL12): 254-287 | Labeled Peptide ([1]; residues of probe-labeled peptide on TUBB6 Tubulin beta-6 chain, Accession # Q9BUF5): 217-241

probe-modified tryptic peptides in PTGR2 (PTGR2): aa 55-66; also recorded: aa 261-278
SMILES: C#CCCC1(CCC(=O)N2CCC(c3ccccc3)CC2)N=N1 [probe 8, 3-(3-(But-3-yn-1-yl)-3H-diazirin-3-yl)-1-(4-phenylpiperidin-1-yl)propan-1-one]
Labeled Peptide of HNRNPA1 Heterogeneous nuclear ribonucleoprotein A1 ([1]; Accession P09651, residues of probe-labeled peptide, family Channels, Transporters, Receptors): 233-265 | Labeled Peptide of HIST1H1C Histone H1.2 ([1]; Accession P16403, residues of probe-labeled peptide, family Transcription factors, Regulators): 65-75 | Labeled Peptide ([1]; MKI67 (P46013), residues of the probe-labeled peptide): 648-659 | Labeled Peptide ([1]; protein BAG6 (P46379), residues of probe-labeled peptide): 332-344 | Labeled Peptide ([1]; protein CCT8 T-complex protein 1 subunit theta (P50990), residues of probe-labeled peptide): 441-450 | Labeled Peptide ([1]; protein CDC37 Hsp90 co-chaperone Cdc37 (Q16543), residues of probe-labeled peptide): 287-307 | Labeled Peptide ([1]; protein DHX9 ATP-dependent RNA helicase A (Q08211), residues of probe-labeled peptide): 121-141 | Labeled Peptide ([1]; protein Q14683 SMC1A Structureal maintenance of chromosomes protein 1A): 1070-1086 | Labeled Peptide ([1]; residues of probe-labeled peptide on UBAP2L Ubiquitin-associated protein 2-like, Accession # Q14157): 239-257
